GI50 and TGI data for eight compounds are collected here from PubChem BioAssay (NCI).

Some test systems named below: 786-0 renal; CAKI-1 renal; HOP-62 NSCLC; MCF7 breast; NCI-H226 lung; NCI-H460 lung; OVCAR-4 ovarian; SN12C renal; UO-31 renal; COLO 205 colon.
Common to all, as to assay: NCI tumour cell line growth inhibition, 48 h

Where “and” joins values, the source holds several entries; their conditions need not be identical. Identical values can stand only once.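 48-hour exposure; five concentrations; linearly interpolated endpoints. Abbreviation: GI50, concentration required for 50% inhibition of growth. TGI is the concentration that stops growth completely.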

Regarding `O=C(CSc1nc2ccc([N+](=O)[O-])cc2[nH]1)Nc1ccc([N+](=O)[O-])cc1`, the GI50 in the assay on 786-0 renal is 3.02 µM; in the assay with CAKI-1 renal, 2.08 µM; with HOP-62 NSCLC, 2.32 µM; in the assay on MCF7 breast, 1.95 µM; in the assay with NCI-H226 lung it was 2 µM; in the assay with NCI-H460 lung, 2.9 µM. For the same compound, the GI50 was 1.92 µM with OVCAR-4 ovarian, 2.26 µM in the assay on SN12C renal and 1.4 µM with UO-31 renal. Also, the TGI amounted to 13.5 µM in the assay with 786-0 renal; 7.67 µM in the assay on CAKI-1 renal; 12.1 µM with HOP-62 NSCLC; 8.83 µM in the assay on MCF7 breast; 7.88 µM in the assay with NCI-H226 lung; 12.3 µM in the assay on NCI-H460 lung. Further, the TGI in the assay on OVCAR-4 ovarian came out at 29.3 µM; in the assay on SN12C renal it was 10.6 µM; with UO-31 renal, 8.18 µM.

For `O=C(NCCCNc1cc(-c2cn(-c3ccccc3)nc2-c2cccc(O)c2)ccn1)c1ccc(F)cc1`, the GI50 in the assay on 786-0 renal was 1.49 µM; in the assay with CAKI-1 renal, 2.84 µM; in the assay on COLO 205 colon it was 1.6 µM; with HOP-62 NSCLC, 2.64 µM; in the assay with MCF7 breast it was 2.32 µM; with NCI-H226 lung, 3.7 µM. Besides, the GI50 in the assay with NCI-H460 lung was 3.14 µM; in the assay with OVCAR-4 ovarian, 3.79 µM; in the assay with SN12C renal, 4.29 µM; in the assay with UO-31 renal, 1.78 µM. Further, the TGI in the assay on 786-0 renal was 3.62 µM; in the assay on CAKI-1 renal it was 21.2 µM; with COLO 205 colon, 3.34 µM; in the assay with HOP-62 NSCLC, 10.8 µM; in the assay with MCF7 breast, 9.92 µM; in the assay with NCI-H226 lung it was 12.4 µM. Also, the TGI with NCI-H460 lung is 11.5 µM; in the assay with OVCAR-4 ovarian, more than 100 µM; in the assay on SN12C renal it was 30.8 µM; with UO-31 renal, 10.2 µM.

For the compound `ClCCN(CCCl)c1ccc(OCc2ccccc2)cc1`, the GI50 in the assay with 786-0 renal was 2.97 µM; in the assay with CAKI-1 renal it was 0.709 µM; with COLO 205 colon, 12.1 µM; in the assay with HOP-62 NSCLC, 4.05 µM; in the assay with MCF7 breast, 3.6 µM; with NCI-H226 lung, 10.3 µM. In addition, the GI50 in the assay on NCI-H460 lung is 0.603 µM; in the assay with OVCAR-4 ovarian, 12 µM; with SN12C renal, 2.76 µM; with UO-31 renal, 3.99 µM. In addition, the TGI in the assay on 786-0 renal stood at 22.1 µM; in the assay with CAKI-1 renal, 66.5 µM; in the assay on COLO 205 colon, 32.4 µM; in the assay on HOP-62 NSCLC it was 30.4 µM; with MCF7 breast, 35.5 µM; with NCI-H226 lung it was 28 µM. For the same compound, the TGI is 19.8 µM in the assay on NCI-H460 lung, 55.4 µM with OVCAR-4 ovarian, 58.6 µM with SN12C renal and 41.4 µM in the assay with UO-31 renal.

On to `O=C(NC(=S)Nc1ccc(-c2nc3ccccc3[nH]2)cc1)c1ccc2ccccc2c1`, for which the GI50 in the assay with 786-0 renal is 1.88 µM; in the assay with CAKI-1 renal, 1.96 µM; in the assay on COLO 205 colon it was 4.98 µM; in the assay with HOP-62 NSCLC it was 2.41 µM; with MCF7 breast it was 4.56 µM; in the assay with NCI-H226 lung, 4.36 µM. Moreover, the GI50 in the assay on NCI-H460 lung is 4.29 µM; in the assay on OVCAR-4 ovarian, 2.78 µM; with SN12C renal it was 3.18 µM; in the assay with UO-31 renal it was 1.92 µM. Further, the TGI was 3.52 µM in the assay with 786-0 renal; 4.58 µM in the assay on CAKI-1 renal; 46.5 µM in the assay on COLO 205 colon; 5.58 µM with HOP-62 NSCLC; more than 100 µM in the assay with MCF7 breast; 25.4 µM with NCI-H226 lung. The TGI is more than 100 µM in the assay with NCI-H460 lung, 9.22 µM in the assay with OVCAR-4 ovarian, 9.81 µM in the assay on SN12C renal and 3.65 µM with UO-31 renal.

Consider `CC(C)[C@]12O[C@H]1[C@@H]1O[C@]13[C@]1(O[C@H]1C[C@H]1C4=C(CC[C@@]13C)C(=O)OC4)[C@@H]2OC(=O)OC(C)(C)C`, for which the GI50 in the assay on 786-0 renal was 0.0308 µM; in the assay on CAKI-1 renal it was 0.0226 µM; in the assay on COLO 205 colon it was 0.014 µM; in the assay with HOP-62 NSCLC, 0.0146 µM; in the assay with MCF7 breast it was less than 0.0144 µM; in the assay on NCI-H226 lung, less than 0.0143 µM. In addition, the GI50 is less than 0.01 µM in the assay on NCI-H460 lung, 0.0273 µM with OVCAR-4 ovarian, 0.0261 µM with SN12C renal and 0.0164 µM with UO-31 renal. Besides, the TGI in the assay on 786-0 renal was more than 100 µM; in the assay with CAKI-1 renal, more than 100 µM; in the assay on COLO 205 colon it was 0.0319 µM; in the assay on HOP-62 NSCLC it was more than 100 µM; in the assay on MCF7 breast, more than 100 µM; in the assay with NCI-H226 lung it was 0.173 µM. Further, the TGI in the assay on NCI-H460 lung is more than 33.6 µM; with OVCAR-4 ovarian it was more than 100 µM; with SN12C renal it was more than 100 µM; in the assay on UO-31 renal, more than 100 µM.

Turning to `CC12OC(C(=O)C13CC3)C1C(=O)c3cccc(O)c3C(=O)C12` (configuration not stated), the GI50 is 6.45 µM in the assay on 786-0 renal; 3.43 µM in the assay with CAKI-1 renal; 15.5 µM in the assay with COLO 205 colon; 7.21 µM with HOP-62 NSCLC; 14.3 µM in the assay on MCF7 breast; 22.9 µM with NCI-H226 lung. Besides, the GI50 in the assay on NCI-H460 lung is 18.6 µM; with OVCAR-4 ovarian, 3.16 µM; in the assay on SN12C renal it was 4.96 µM; with UO-31 renal it was 23.1 µM. For the same compound, the TGI with 786-0 renal is 19.2 µM; in the assay on CAKI-1 renal it was 11.1 µM; with COLO 205 colon it was more than 96.2 µM; with HOP-62 NSCLC, 19.7 µM; in the assay on MCF7 breast, more than 57.9 µM; with NCI-H226 lung, 78.5 µM. For the same compound, the TGI is 68.3 µM with NCI-H460 lung, 12 µM in the assay on OVCAR-4 ovarian, 18.9 µM in the assay on SN12C renal and more than 100 µM in the assay on UO-31 renal.

Take `CC[C@@]1(O)C(=O)OCc2c1cc1n(c2=O)Cc2cc3c(OC)cccc3nc2-1`: the GI50 in the assay on 786-0 renal is 0.00394 µM; in the assay with CAKI-1 renal, 0.00503 µM and < 0.215 µM; in the assay on HOP-62 NSCLC it was 0.000532 µM and < 0.215 µM; in the assay on NCI-H226 lung it was 0.00806 µM; in the assay with NCI-H460 lung it was 0.000801 µM and < 0.215 µM; in the assay with SN12C renal, 0.00326 µM. Further, in the assay with UO-31 renal, the GI50 is 0.00535 µM. The TGI in the assay with 786-0 renal was 1.13 µM; with CAKI-1 renal, 0.238 µM; in the assay on COLO 205 colon, 5.25 µM; with MCF7 breast, more than 100 µM; in the assay with NCI-H226 lung it was 0.078 µM and 0.445 µM; in the assay on NCI-H460 lung, 1.27 µM. In addition, the TGI in the assay on OVCAR-4 ovarian stood at 11.9 µM; in the assay on SN12C renal, 3.4 µM.

With `C#CCOCCCC(=O)O`, the TGI in the assay with 786-0 renal, with CAKI-1 renal, in the assay with COLO 205 colon, in the assay with HOP-62 NSCLC, in the assay on MCF7 breast and in the assay on NCI-H226 lung was more than 100 µM each time. Moreover, the TGI with NCI-H460 lung, with OVCAR-4 ovarian and in the assay on SN12C renal was more than 100 µM in each case.
